What was measured:
[1] = system: giant foxtail; assay: Test A pre-/postemergence herbicide test; format: in vivo, Setaria faberi
Method in brief: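 Plants are held in greenhouse about ten days after treatment, then compared with untreated controls and scored 0 (no effect) to 100 (complete control). Preemergence dosing is a directed soil spray on sown sandy loam; postemergence dosing is spray to runoff at 2–10 cm height.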

[2] = system: bermudagrass; assay: Test C pre-/postemergence herbicide test; format: in vivo, Cynodon dactylon; conditions: for Bermudagrass plant response rating: Preemergence, 500 g ai/ha
Method in brief: (§1)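 Greenhouse-grown plants were evaluated visually 12 to 14 days after treatment, with 100 meaning complete control and 0 no effect. Application was preemergence, or postemergence at 2 to 18 cm.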

[3] = system: large crabgrass; assay: Test C pre-/postemergence herbicide test; format: in vivo, Digitaria sanguinalis; conditions: for Crabgrass, Large plant response rating: 500 g ai/ha
Method in brief: as §1

[4] = system: giant foxtail; assay: Test C pre-/postemergence herbicide test; format: in vivo, Setaria faberi; conditions: for Foxtail, Giant plant response rating: 500 g ai/ha
Method in brief: as §1

[5] = system: kochia; assay: Test C pre-/postemergence herbicide test; format: in vivo, Kochia scoparia; conditions: for Kochia plant response rating: 500 g ai/ha
Method in brief: as §1

[6] = system: morningglory; assay: Test C pre-/postemergence herbicide test; format: in vivo, Ipomoea coccinea; parameters: key to Plant response rating, Morningglory: 0 = no effect, 100 = complete control; conditions: for Morningglory plant response rating: 500 g ai/ha
Method in brief: as §1

[7] = system: yellow nutsedge; assay: Test C pre-/postemergence herbicide test; format: in vivo, Cyperus esculentus; conditions: for Nutsedge, Yellow plant response rating: 500 g ai/ha
Method in brief: as §1

[8] = system: pigweed; assay: Test C pre-/postemergence herbicide test; format: in vivo, Amaranthus retroflexus; conditions: for Pigweed plant response rating: 500 g ai/ha
Method in brief: as §1

[9] = system: common ragweed; assay: Test C pre-/postemergence herbicide test; format: in vivo, Ambrosia elatior; parameters: key to Plant response rating, Ragweed: 0 = no effect, 100 = complete control; conditions: for Ragweed plant response rating: 500 g ai/ha
Method in brief: as §1

[10] = system: soybean; assay: Test C pre-/postemergence herbicide test; format: in vivo, Glycine max; conditions: for Soybean plant response rating: 500 g ai/ha
Method in brief: as §1

[11] = Postemergence, 500 g ai/ha, 0 to 100 scale, 0 no effect, 100 complete control
[12] = Postemergence, 2000 g ai/ha, 0 to 100 scale, 0 no effect, 100 complete control
[13] = Preemergence, 500 g ai/ha, visual rating, 0 to 100 scale (0 no effect, 100 complete control)
[14] = Preemergence, 2000 g ai/ha, visual rating, 0 to 100 scale (0 no effect, 100 complete control)
[15] = 125 g ai/ha, scale 0 (no effect) to 100 (complete control), visual, 12 to 14 days, preemergence
[16] = 250 g ai/ha, scale 0 to 100 (0 no effect, 100 complete control), visual, 12 to 14 days, preemergence
[17] = scale 0 to 100, 0 no effect, 100 complete control
[18] = Preemergence, scale 0 to 100, 0 no effect, 100 complete control
[19] = postemergence, 125 g ai/ha, scale 0 to 100
[20] = postemergence, 62 g ai/ha, scale 0 to 100
[21] = Postemergence, 250 g ai/ha, scale 0 to 100, 0 no effect, 100 complete control

CCCCOc1cccc(NC(=O)c2cc(C(C)(C)C)nn2CC)c1 [Compound 137]
80: Foxtail, Giant plant response rating [1, 14] | Plant response rating (0 = no effect, 100 = complete control), Kochia ([5]; 62 g ai/ha, preemergence)
100: Plant response rating, Bermudagrass [2, 15] | Plant response rating, Bermudagrass [2, 16] | Bermudagrass plant response rating [2, 17] | Plant response rating, Crabgrass, Large [3, 16] | Crabgrass, Large plant response rating [3, 18] | Kochia plant response rating [5, 18] | Plant response rating (0 = no effect, 100 = complete control), Pigweed ([8]; 62 g ai/ha, preemergence) | Plant response rating, Pigweed [8, 15] | Pigweed plant response rating [8, 18] | Ragweed plant response rating [9, 18]
30: Plant response rating, Foxtail, Giant [1, 12]
20: Foxtail, Giant plant response rating [1, 11]
0: Plant response rating (0 = no effect, 100 = complete control), Morningglory ([6]; 62 g ai/ha, preemergence) | Plant response rating, Morningglory [6, 15] | Plant response rating (0 = no effect, 100 = complete control), Nutsedge, Yellow ([7]; 62 g ai/ha, preemergence) | Plant response rating, Nutsedge, Yellow [7, 15] | Nutsedge, Yellow plant response rating [7, 18] | Plant response rating (0 = no effect, 100 = complete control), Ragweed ([9]; 62 g ai/ha, preemergence) | Plant response rating, Ragweed [9, 15] | Plant response rating (0 = no effect, 100 = complete control), Soybean ([10]; 62 g ai/ha, preemergence) | Plant response rating, Soybean [10, 15]
85: Foxtail, Giant plant response rating [4, 18]
60: Plant response rating, Foxtail, Giant [4, 16] | Morningglory plant response rating [6, 18]
10: Plant response rating (0 = no effect, 100 = complete control), Foxtail, Giant ([4]; 62 g ai/ha, preemergence) | Soybean plant response rating [10, 18]
50: Foxtail, Giant plant response rating [1, 13] | Plant response rating (0 = no effect, 100 = complete control), Bermudagrass ([2]; 62 g ai/ha, preemergence) | Plant response rating, Foxtail, Giant [4, 15]
90: Plant response rating, Kochia [5, 15]
70: Plant response rating, Crabgrass, Large [3, 15]
40: Plant response rating (0 = no effect, 100 = complete control), Crabgrass, Large ([3]; 62 g ai/ha, preemergence)

CCNC(=O)c1cccc(NC(=O)c2cc(C(C)(C)C)nn2CC)n1 [Compound 144]
65: Plant response rating, Kochia [5, 19]
90: Foxtail, Giant plant response rating [1, 13] | Bermudagrass plant response rating [2, 17] | Morningglory plant response rating [6, 18] | Plant response rating (0 = no effect, 100 = complete control), Pigweed ([8]; 62 g ai/ha, preemergence) | Plant response rating, Pigweed [8, 15] | Soybean plant response rating ([10]; Postemergence, scale 0 to 100) | Plant response rating, Soybean [10, 21]
40: Plant response rating (0 = no effect, 100 = complete control), Foxtail, Giant ([4]; 62 g ai/ha, preemergence) | Nutsedge, Yellow plant response rating [7, 18] | Plant response rating, Soybean [10, 15]
75: Plant response rating (0 = no effect, 100 = complete control), Kochia ([5]; 62 g ai/ha, preemergence)
85: Plant response rating, Crabgrass, Large [3, 16] | Kochia plant response rating ([5]; Postemergence, scale 0 to 100) | Plant response rating, Soybean [10, 19]
0: Plant response rating, Bermudagrass [2, 19] | Plant response rating, Bermudagrass [2, 20] | Plant response rating, Crabgrass, Large [3, 20] | Plant response rating, Foxtail, Giant [4, 20] | Plant response rating (0 = no effect, 100 = complete control), Morningglory ([6]; 62 g ai/ha, preemergence) | Plant response rating, Morningglory [6, 19] | Plant response rating, Morningglory [6, 20] | Plant response rating (0 = no effect, 100 = complete control), Nutsedge, Yellow ([7]; 62 g ai/ha, preemergence) | Plant response rating, Nutsedge, Yellow [7, 15] | Nutsedge, Yellow plant response rating ([7]; Postemergence, scale 0 to 100) | Plant response rating, Nutsedge, Yellow [7, 21] | Plant response rating, Nutsedge, Yellow [7, 19] | Plant response rating, Nutsedge, Yellow [7, 20] | Plant response rating (0 = no effect, 100 = complete control), Ragweed ([9]; 62 g ai/ha, preemergence) | Plant response rating, Ragweed [9, 19] | Plant response rating, Ragweed [9, 20] | Plant response rating (0 = no effect, 100 = complete control), Soybean ([10]; 62 g ai/ha, preemergence)
100: Plant response rating, Foxtail, Giant [1, 12] | Foxtail, Giant plant response rating [1, 14] | Crabgrass, Large plant response rating ([3]; Postemergence, scale 0 to 100) | Plant response rating, Crabgrass, Large [3, 21] | Crabgrass, Large plant response rating [3, 18] | Plant response rating, Foxtail, Giant [4, 16] | Foxtail, Giant plant response rating [4, 18] | Kochia plant response rating [5, 18] | Pigweed plant response rating ([8]; Postemergence, scale 0 to 100) | Plant response rating, Pigweed [8, 21] | Pigweed plant response rating [8, 18] | Plant response rating, Pigweed [8, 19] | Plant response rating, Pigweed [8, 20]
70: Plant response rating (0 = no effect, 100 = complete control), Bermudagrass ([2]; 62 g ai/ha, preemergence) | Plant response rating, Crabgrass, Large [3, 15] | Plant response rating, Foxtail, Giant [4, 15] | Foxtail, Giant plant response rating ([4]; Postemergence, scale 0 to 100) | Plant response rating, Kochia [5, 21] | Plant response rating, Soybean [10, 20]
20: Plant response rating, Morningglory [6, 21]
10: Plant response rating, Crabgrass, Large [3, 19] | Plant response rating, Foxtail, Giant [4, 19]
30: Plant response rating, Morningglory [6, 15] | Plant response rating, Ragweed [9, 15]
80: Foxtail, Giant plant response rating [1, 11] | Plant response rating, Bermudagrass [2, 15] | Plant response rating, Bermudagrass [2, 16] | Plant response rating, Kochia [5, 15] | Morningglory plant response rating ([6]; Postemergence, scale 0 to 100) | Ragweed plant response rating ([9]; Postemergence, scale 0 to 100) | Ragweed plant response rating [9, 18] | Soybean plant response rating [10, 18]
50: Plant response rating (0 = no effect, 100 = complete control), Crabgrass, Large ([3]; 62 g ai/ha, preemergence) | Plant response rating, Foxtail, Giant [4, 21] | Plant response rating, Ragweed [9, 21]

C#CCNC(=O)c1cccc(NC(=O)c2cc(C(C)(C)C)nn2CC)n1 [Compound 147]
10: Plant response rating, Crabgrass, Large [3, 21] | Plant response rating, Kochia [5, 19] | Ragweed plant response rating ([9]; Postemergence, scale 0 to 100) | Plant response rating, Ragweed [9, 21] | Plant response rating, Soybean [10, 20]
45: Foxtail, Giant plant response rating [1, 11] | Foxtail, Giant plant response rating ([4]; Postemergence, scale 0 to 100)
80: Kochia plant response rating ([5]; Postemergence, scale 0 to 100)
40: Plant response rating (0 = no effect, 100 = complete control), Bermudagrass ([2]; 62 g ai/ha, preemergence) | Plant response rating, Kochia [5, 15] | Plant response rating, Soybean [10, 21]
70: Plant response rating, Bermudagrass [2, 15] | Plant response rating, Bermudagrass [2, 21] | Ragweed plant response rating [9, 18] | Soybean plant response rating ([10]; Postemergence, scale 0 to 100)
60: Foxtail, Giant plant response rating [1, 13] | Crabgrass, Large plant response rating ([3]; Postemergence, scale 0 to 100)
100: Crabgrass, Large plant response rating [3, 18] | Foxtail, Giant plant response rating [4, 18] | Kochia plant response rating [5, 18] | Pigweed plant response rating ([8]; Postemergence, scale 0 to 100) | Plant response rating, Pigweed [8, 21] | Pigweed plant response rating [8, 18]
0: Plant response rating (0 = no effect, 100 = complete control), Crabgrass, Large ([3]; 62 g ai/ha, preemergence) | Plant response rating, Crabgrass, Large [3, 19] | Plant response rating, Crabgrass, Large [3, 20] | Plant response rating (0 = no effect, 100 = complete control), Foxtail, Giant ([4]; 62 g ai/ha, preemergence) | Plant response rating, Foxtail, Giant [4, 15] | Plant response rating, Foxtail, Giant [4, 21] | Plant response rating, Foxtail, Giant [4, 19] | Plant response rating, Foxtail, Giant [4, 20] | Plant response rating (0 = no effect, 100 = complete control), Morningglory ([6]; 62 g ai/ha, preemergence) | Plant response rating, Morningglory [6, 15] | Morningglory plant response rating ([6]; Postemergence, scale 0 to 100) | Plant response rating, Morningglory [6, 21] | Morningglory plant response rating [6, 18] | Plant response rating, Morningglory [6, 19] | Plant response rating, Morningglory [6, 20] | Plant response rating (0 = no effect, 100 = complete control), Nutsedge, Yellow ([7]; 62 g ai/ha, preemergence) | Plant response rating, Nutsedge, Yellow [7, 15] | Nutsedge, Yellow plant response rating ([7]; Postemergence, scale 0 to 100) | Plant response rating, Nutsedge, Yellow [7, 21] | Nutsedge, Yellow plant response rating [7, 18] | Plant response rating, Nutsedge, Yellow [7, 19] | Plant response rating, Nutsedge, Yellow [7, 20] | Plant response rating (0 = no effect, 100 = complete control), Ragweed ([9]; 62 g ai/ha, preemergence) | Plant response rating, Ragweed [9, 15] | Plant response rating, Ragweed [9, 19] | Plant response rating, Ragweed [9, 20] | Plant response rating (0 = no effect, 100 = complete control), Soybean ([10]; 62 g ai/ha, preemergence) | Plant response rating, Soybean [10, 15]
90: Plant response rating, Foxtail, Giant [1, 12] | Plant response rating, Bermudagrass [2, 16] | Plant response rating, Crabgrass, Large [3, 16] | Plant response rating, Pigweed [8, 15] | Plant response rating, Pigweed [8, 19] | Plant response rating, Pigweed [8, 20]
20: Plant response rating (0 = no effect, 100 = complete control), Pigweed ([8]; 62 g ai/ha, preemergence)
95: Foxtail, Giant plant response rating [1, 14] | Bermudagrass plant response rating [2, 17]
35: Plant response rating, Soybean [10, 19]
30: Plant response rating, Foxtail, Giant [4, 16]
5: Plant response rating, Kochia [5, 20] | Soybean plant response rating [10, 18]
50: Plant response rating, Crabgrass, Large [3, 15] | Plant response rating, Kochia [5, 21]
